Results published in patent EP1210350B1, “WATER SOLUBLE SDZ-RAD ESTERS” (Wyeth, priority 1999, dated 2001).
Converted amounts (≈) assume the structure as drawn. Where two headings read alike, the source gives them in different places.

System: U87MG Human Glioblastoma (ATCC # HTB-14)
Experiment: 3H thymidine incorporation in U87MG human glioblastoma cells
Format: cell-based
Details: 48 hours incubation with compound, 3H thymidine for the last 5 hours
Description: U87MG Human Glioblastoma (ATCC # HTB-14)
3H Thymidine Incorporation Protocol
• Growth Medium: BRL Minimum Essential Medium with Earle Salts (500 ml) + 5mLBRL MEM Non-Essential Amino Acids (10mM) +5 mLBRL Penicillin-Streptomycin (10000u/ml,10000ug/ml) +5mLBRL Na Pyruvate Solution (100mM) +5mLBRL L-Glutamine 200mM +50mLBRL Fetal Bovine Serum (Qualified) • Assay: • 1. Cells were trypsinized and plated at a concentration of 10^4 cells/well in a final volume of 200 µl growth medium in 96-well flat bottom plates and allowed to adhere for 24 hours at 37°C. • 2. The media was removed by aspiration with care to not disturb the cell monolayer. 200 µl of fresh growth media was added per well, allowing enough wells for samples to be run in triplicate. Compounds were added in 10 µl PBS solutions and incubated for another 48 hours at 37°C. • 3. During the last 5 hours of incubation, plates were labeled with 1µCi 3H thymidine per well. (NEN thymidine, catalog # NET-027, 6.7 Ci/mmole). The 1µCi was added in 10 µl of PBS (on the day of harvest.). The plates were returned to the incubator for the last 5 hours. • 4. The radioactive media was removed by aspiration, with care not to disturb the cell monolayer. 50 µl of BRL 10X Trypsin was added to each well, followed by incubation at 37°C for 10 minutes or until the monolayer was loosened from the well bottom. […] Mats were counted in a Wallac Betaplate counter.

SMILES | IC50 [ng/mL] | IC50 (Homo sapiens, U-87 MG, read-out: IC50) [ng/mL]
CO[C@H]1C[C@@H]2CC[C@@H](C)[C@@](O)(O2)C(=O)C(=O)N2CCCC[C@H]2C(=O)O[C@H]([C@H](C)C[C@@H]2CC[C@@H](OCCO)[C@H](OC)C2)CC(=O)[C@H](C)/C=C(\C)[C@@H](O)[C@@H](OC)C(=O)[C@H](C)C[C@H](C)/C=C/C=C/C=C/1C [SDZ-RAD, 40-O-(2-hydroxy)ethyl-rapamycin] | 2.0 (≈ 2.09 nM) | –
CO[C@H]1C[C@@H]2CC[C@@H](C)[C@@](O)(O2)C(=O)C(=O)N2CCCC[C@H]2C(=O)O[C@H]([C@H](C)C[C@@H]2CC[C@@H](O)[C@H](OC)C2)CC(=O)[C@H](C)/C=C(\C)[C@@H](O)[C@@H](OC)C(=O)[C@H](C)C[C@H](C)/C=C/C=C/C=C/1C [Rapamycin] | – | 0.5 (≈ 0.547 nM)
